These results are taken from article PMC4595737, “Cyclic diguanylate monophosphate directly binds to human siderocalin and inhibits its antibacterial activity” (Nature Communications, 2015).

Holding throughout (type): binding
Assay [1] has as its target T1, Siderocalin (LCN2) (Homo sapiens, UniProt P80188).
T1 construct: recombinant human LCN2 (rLCN2) without a signal peptide fragment
Nature of the assay: ITC ([…], n=[…]); UV cross-linking with c-di-[…]GMP and cold competition.

Another assay addresses T2, STING (Homo sapiens, UniProt Q86WV6).
T2 construct: gene STING1
Nature of the assay: UV cross-linking with c-di-[…]GMP, SDS-PAGE autoradiography (STING as positive control).

Assay [2] addresses T3, Siderocalin (LCN2), rLCN2-W79A (Homo sapiens, UniProt P80188, W99A).
T3 construct: recombinant human LCN2 (rLCN2) without a signal peptide fragment
The assay can be described thus: ITC. In general terms: ITC needs no label: the signal is the heat of the interaction.

Assay [3] addresses T1, Siderocalin (LCN2). The assay can be described thus: ITC; competition with c-di-[…]GMP cross-linking.

The structures appear in SMILES notation.

T1 sequence (P80188 21-198): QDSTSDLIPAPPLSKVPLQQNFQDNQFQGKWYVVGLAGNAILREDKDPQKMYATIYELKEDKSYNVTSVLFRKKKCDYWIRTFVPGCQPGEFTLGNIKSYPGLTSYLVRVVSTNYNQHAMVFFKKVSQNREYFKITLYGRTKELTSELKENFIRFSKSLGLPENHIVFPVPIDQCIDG
T3 sequence (P80188 21-198 W99A): as the sequence (P80188 21-198) above, with W79A counted along it
T2 sequence (Q86WV6 whole entry): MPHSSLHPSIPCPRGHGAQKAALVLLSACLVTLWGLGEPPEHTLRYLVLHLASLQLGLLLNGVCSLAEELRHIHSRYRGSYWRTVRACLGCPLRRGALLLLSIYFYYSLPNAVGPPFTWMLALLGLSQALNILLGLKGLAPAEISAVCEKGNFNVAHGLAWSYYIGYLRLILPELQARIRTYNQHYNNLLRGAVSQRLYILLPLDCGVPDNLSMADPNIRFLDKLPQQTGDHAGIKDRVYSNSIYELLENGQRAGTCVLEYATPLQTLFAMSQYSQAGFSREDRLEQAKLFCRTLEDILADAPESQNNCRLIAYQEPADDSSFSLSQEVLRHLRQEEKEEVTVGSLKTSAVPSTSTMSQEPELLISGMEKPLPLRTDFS

For orientation: Kd means the free concentration of one partner at which half of the binding sites on the other are occupied at equilibrium, for simple one-to-one binding. Low readings indicate higher affinity, high ones lower affinity. On Siderocalin (LCN2) [1], `Nc1nc2c(ncn2[C@@H]2O[C@@H]3COP(=O)(O)O[C@H]4[C@@H](O)[C@H](n5cnc6c(=O)[nH]c(N)nc65)O[C@@H]4COP(=O)(O)O[C@H]3[C@H]2O)c(=O)[nH]1` [c-di-GMP] gave a Kd of 1630 ± 50 nM. Moreover, the “UV cross-linking with c-di-[32P]GMP, SDS-PAGE autoradiography (STING as positive)” value on STING is on record as “STING, as a positive control, could clearly bind to the second messenger as indicated by an autoradiograph signal”.

Consider `O=C(N[C@H]1COC(=O)[C@@H](NC(=O)c2cccc(O)c2[O-])COC(=O)[C@@H](NC(=O)c2cccc(O)c2[O-])COC1=O)c1cccc(O)c1[O-].[Fe+3]` [ferric enterobactin], for which the Kd came out at 250 ± 50 nM in assay [2] and 240 ± 30 nM on Siderocalin (LCN2) [3].
